*: point of attachment. NHNH2 = NN*
Tests used:
Assay type in all cases: cell-based
[1] = test system: HepG2 cells; test: RLuc pDNA delivery, robotic library screening, HepG2
Protocol: Cells were seeded in a 96 well plate the day before the experiment at a concentration of 60,000 cell/mL (100 μL/w) in DMEM+10% FBS+1% Gln-Abt. For robotic library screening, the delivery of pDNA encoding for the expression of Renilla luciferase gene (RLuc, pRL-CMV (Promega, #E2261)) in six different cell lines was performed. Amphihilic molecule stock solutions in DMSO were diluted with DMEM and freshly mixed with pDNA stock solutions in DMEM prior to transfection experiments, to afford several complexes at different amphiphile concentration (2-10 μM) while maintaining a constant final pDNA concentration of 2 ng/μL. The mixture was shaken for 30 min at room temperature before the addition to the cells. The cell medium was aspirated, and cells were washed twice with PBS. Finally, 50 μL of the complex's solution were added to the cells and incubated for 4 h. After the incubation, the medium was replaced by 100 μL of fresh DMEM supplemented with 10% FBS. 72 hours after transfection the DMEM was removed, cells were washed once with HBSS and 90 μL of HBSS were added to each well. Cells were incubated at 37° C. for 30 minutes. Then basal luminescence levels were read in a plate reader. Immediately, 10 μL of coelenterazine h in HBSS were added to each well (5 μM final concentration) and cells were incubated at 37° C. for 10 minutes. Finally, the total luminescence measurement of the plates was performed. Amphiphile transfection efficiency was compared and normalized to Lipofectamine® 2000 efficiency (value of 1 in Tables 1-5 and 7; bold numbers). All experiments were done in triplicate.
(§1) Tables 1-7: RLuc (pDNA) or EGFP (mRNA) expression levels were normalized to Lipofectamine reagents (value=1) and expressed as fold-times signal increase. In the case of siRNA, the siRNA treated cells fluorescence was compared with siMOCK control fluorescence, while Cas9-RNP mediated knockout was measured against the fluorescence of untreated cells. In both siRNA and Cas9-RNP, values are expressed as % fluorescence reduction. Amphiphile concentration was 5 μM in all cases. All experiments were performed in triplicate.
Tables 8-13 show the mean (triplicates) luminescent intensity (RLU) measured after the transfection of RLuc pDNA by different amphiphiles at different concentrations in a variety of cell lines. Background luminescence values, accounted by untransfected control cells, were subtracted for processing.

[2] = test system: Hek293 cells expressing EGFP; test: EGFP-targeting siRNA delivery (GFP silencing vs siMOCK), Hek293
Protocol: (§2) To generate an EGFP expressing HeLa cell line, HeLa cells were transfected with EGFP pDNA (pEGFP-C1, Clontech) and stable transfectants were selected with 400 μg/mL of G-418 (Millipore). Green clones were selected by epifluorescence microscopy and tested for EGFP expression stability through several passages. […] All other EGFP-expressing cell lines were obtained in a similar way from parent non-EGFP-expressing cell lines.
(§3) Cells expressing EGFP were seeded in a 96 well plate the day before the experiment at a concentration of 50,000 cell/mL (100 μL/w) in DMEM+10% FBS+1% Gln-Abt. For robotic library screening, the delivery of an EGFP-targeting siRNA (EGFP: enhanced green fluorescent protein, Ambion® Silencer® GFP Positive Control siRNA (siGFP) (AM4626)) in six different cell lines expressing EGFP was performed. […] The mixture was shaken for 30 min at room temperature (rt) before the addition to the cells. The cell medium was aspirated, and cells were washed twice with PBS. Finally, 50 μL of the solution of siRNA/amphiphile complexes were added to the cells and incubated for 4 h. After transfection, the medium was replaced by 100 μL of fresh DMEM supplemented with 10% FBS. The fluorescence knockdown was quantified after 72 h in a plate reader, by comparison with cells transfected with a non-targeting siRNA control (siMOCK, Silencer™ Negative Control No. 1 siRNA (siMOCK) (AM4611)). EGFP knockdown was compared with Lipofectamine® RNAiMAX silencing efficiency (30-60% depending on cell line, defined with a numeric value in the below tables). All experiments were done in triplicate.
as §1
(§4) Tables 20-25 show the mean (triplicates) percentage of GFP-silencing, accounted by fluorescence intensity decrease relative to a non-targeting siRNA (siMOCK) control, measured after the transfection of siRNA by different amphiphiles at different concentrations in a variety of cell lines. Background values, accounted by untreated control cells, were subtracted for processing.

[3] = test system: HepG2 cells; test: EGFP mRNA delivery, robotic library screening, HepG2; details: HepG2 cells
Protocol: Cells were seeded in a 96 well plate the day before the experiment at a concentration of 50,000 cell/mL (100 μL/w) in DMEM+10% FBS+1% Gln-Abt. For robotic library screening, the delivery of EGFP-mRNA (from TriLink, fully substituted with 5-methoxyuridine, capped and polyadenylated; TriLink, CleanCap® EGFP mRNA (5moU), ref. L-7201) in six different cell lines was performed. Amphiphilic molecule stock solutions were prepared in DMSO as described above and diluted in DMEM to afford a range of concentrations. The solutions of EGFP-mRNA/amphiphilic molecule complexes were freshly prepared prior to the transfection experiments. 35 μL of the corresponding amphiphile were added to 10 μL of a solution of EGFP-mRNA at 10 ng/μL in DMEM. The mixture was shaken for 30 min at room temperature before the addition to the cells. The cell medium was aspirated, and cells were washed with PBS twice. […] After the incubation, the medium was replaced by 100 μL of fresh DMEM supplemented with 10% FBS. The total EGFP fluorescence was quantified after 72 h in a well plate reader. Amphiphile transfection efficiency was compared and normalized to Lipofectamine® MessengerMax efficiency (value of 1 in Tables 1-5 and 7; double underlined numbers). All experiments were done in triplicate.
as §1
Tables 14-19 show the mean (triplicates) fluorescence intensity measured after the transfection of EGFP mRNA by different amphiphiles at different concentrations in a variety of cell lines. Background fluorescence values, accounted by untreated control cells, were subtracted for processing.

[4] = test system: ARPE19 cells expressing EGFP; test: EGFP-targeting siRNA delivery (GFP silencing vs siMOCK), ARPE19
Protocol: as §2, §3, §1, §4

## Ac-RK*LRRK*LRK*-NH2 (Ac-RK(NHNH2)LRRK(NHNH2)LRK(NHNH2)-NH2; not fully specified; printed as Ac-RK*LRRK*LRK*-NH2; also: K*2,K*6,K*9: native or modified lysine (ε-amide to a linker)) [Peptide 9.3]
[1]; Dodecanal, 10 μM
  mean luminescent intensity (RLuc pDNA): 25099 RLU
[1]; Dodecanal, 15 μM
  mean luminescent intensity (RLuc pDNA): 21420 RLU
[1]; Myristoleyl, 5 μM
  mean luminescent intensity (RLuc pDNA): 57891 RLU
[1]; Myristoleyl, 10 μM
  mean luminescent intensity (RLuc pDNA): 244850 RLU
[1]; Myristoleyl, 15 μM
  mean luminescent intensity (RLuc pDNA): 286208 RLU
[1]; Petroselinyl, 15 μM
  mean luminescent intensity (RLuc pDNA): 50057 RLU
[2]; Dodecanal, 5 μM
  percentage of GFP-silencing relative to siMOCK: 19%
[2]; Dodecanal, 15 μM
  percentage of GFP-silencing relative to siMOCK: 40%
[2]; Myristoleyl, 10 μM
  percentage of GFP-silencing relative to siMOCK: 10%
[2]; Myristoleyl, 15 μM
  percentage of GFP-silencing relative to siMOCK: 43%
[2]; Oleyl, 15 μM
  percentage of GFP-silencing relative to siMOCK: 28%
[2]; Palmitoleyl, 10 μM
  percentage of GFP-silencing relative to siMOCK: 17%
[2]; Palmitoleyl, 15 μM
  percentage of GFP-silencing relative to siMOCK: 36%
[2]; Petroselinyl, 10 μM
  percentage of GFP-silencing relative to siMOCK: 3%
[2]; Petroselinyl, 15 μM
  percentage of GFP-silencing relative to siMOCK: −12%
[3]; Myristoleyl, 15 μM
  mean fluorescence intensity after transfection of EGFP mRNA: 867
[3]; Oleyl, 5 μM
  mean fluorescence intensity after transfection of EGFP mRNA: 382
[3]; Oleyl, 10 μM
  mean fluorescence intensity after transfection of EGFP mRNA: 802
[3]; Oleyl, 15 μM
  mean fluorescence intensity after transfection of EGFP mRNA: 231
[3]; Palmitoleyl, 10 μM
  mean fluorescence intensity after transfection of EGFP mRNA: 1226
[3]; Palmitoleyl, 15 μM
  mean fluorescence intensity after transfection of EGFP mRNA: 629
[4]; Dodecanal, 5 μM
  percentage of GFP-silencing relative to siMOCK: 57%
[4]; Dodecanal, 10 μM
  percentage of GFP-silencing relative to siMOCK: 57%
[4]; Dodecanal, 15 μM
  percentage of GFP-silencing relative to siMOCK: 34%
[4]; Myristoleyl, 5 μM
  percentage of GFP-silencing relative to siMOCK: 47%
[4]; Oleyl, 5 μM
  percentage of GFP-silencing relative to siMOCK: 20%
[4]; Oleyl, 10 μM
  percentage of GFP-silencing relative to siMOCK: 55%
[4]; Oleyl, 15 μM
  percentage of GFP-silencing relative to siMOCK: 51%
[4]; Palmitoleyl, 5 μM
  percentage of GFP-silencing relative to siMOCK: 51%
[4]; Palmitoleyl, 10 μM
  percentage of GFP-silencing relative to siMOCK: 30%
[4]; Palmitoleyl, 15 μM
  percentage of GFP-silencing relative to siMOCK: 11%
[4]; Petroselinyl, 5 μM
  percentage of GFP-silencing relative to siMOCK: 18%
[4]; Petroselinyl, 10 μM
  percentage of GFP-silencing relative to siMOCK: 49%
[4]; Petroselinyl, 15 μM
  percentage of GFP-silencing relative to siMOCK: 52%

## Ac-RHLK*RLK*RRLK*RL-NH2 (Ac-RHLKRLKRRLKRL-NH2; not fully specified (residues 4, 7, 11); printed as Ac-RHLK*RLK*RRLK*RL-NH2; also: linker on K* not given here) [13(Arg-His)]
[1]; Dodecanal, 5 μM
  mean luminescent intensity (RLuc pDNA): 38257 RLU
[1]; Dodecanal, 10 μM
  mean luminescent intensity (RLuc pDNA): 45978 RLU
[1]; Dodecanal, 15 μM
  mean luminescent intensity (RLuc pDNA): 15867 RLU
[1]; Myristoleyl, 5 μM
  mean luminescent intensity (RLuc pDNA): 270920 RLU
[1]; Myristoleyl, 10 μM
  mean luminescent intensity (RLuc pDNA): 65274 RLU
[1]; Myristoleyl, 15 μM
  mean luminescent intensity (RLuc pDNA): 23425 RLU
[1]; Oleyl, 5 μM
  mean luminescent intensity (RLuc pDNA): 123820 RLU
[1]; Oleyl, 15 μM
  mean luminescent intensity (RLuc pDNA): −1443 RLU
[1]; Palmitoleyl, 5 μM
  mean luminescent intensity (RLuc pDNA): 211155 RLU
[1]; Palmitoleyl, 10 μM
  mean luminescent intensity (RLuc pDNA): 107841 RLU
[1]; Palmitoleyl, 15 μM
  mean luminescent intensity (RLuc pDNA): 24788 RLU
[1]; Petroselinyl, 10 μM
  mean luminescent intensity (RLuc pDNA): 133806 RLU
[1]; Petroselinyl, 15 μM
  mean luminescent intensity (RLuc pDNA): 41128 RLU
[2]; Dodecanal, 5 μM
  percentage of GFP-silencing relative to siMOCK: 24%
[2]; Dodecanal, 10 μM
  percentage of GFP-silencing relative to siMOCK: 39%
[2]; Dodecanal, 15 μM
  percentage of GFP-silencing relative to siMOCK: 44%
[2]; Myristoleyl, 10 μM
  percentage of GFP-silencing relative to siMOCK: 48%
[2]; Myristoleyl, 15 μM
  percentage of GFP-silencing relative to siMOCK: 25%
[2]; Oleyl, 10 μM
  percentage of GFP-silencing relative to siMOCK: 39%
[2]; Oleyl, 15 μM
  percentage of GFP-silencing relative to siMOCK: 47%
[2]; Petroselinyl, 5 μM
  percentage of GFP-silencing relative to siMOCK: 30%
[2]; Petroselinyl, 10 μM
  percentage of GFP-silencing relative to siMOCK: 5%
[2]; Petroselinyl, 15 μM
  percentage of GFP-silencing relative to siMOCK: 18%
[3]; Dodecanal, 10 μM
  mean fluorescence intensity after transfection of EGFP mRNA: 782
[3]; Dodecanal, 15 μM
  mean fluorescence intensity after transfection of EGFP mRNA: 868
[3]; Oleyl, 5 μM
  mean fluorescence intensity after transfection of EGFP mRNA: 5251
[3]; Palmitoleyl, 5 μM
  mean fluorescence intensity after transfection of EGFP mRNA: 4616
[3]; Palmitoleyl, 10 μM
  mean fluorescence intensity after transfection of EGFP mRNA: 2070
[3]; Palmitoleyl, 15 μM
  mean fluorescence intensity after transfection of EGFP mRNA: 1943
[3]; Petroselinyl, 5 μM
  mean fluorescence intensity after transfection of EGFP mRNA: 1986
[3]; Petroselinyl, 10 μM
  mean fluorescence intensity after transfection of EGFP mRNA: 508
[4]; Dodecanal, 5 μM
  percentage of GFP-silencing relative to siMOCK: 60%
[4]; Dodecanal, 10 μM
  percentage of GFP-silencing relative to siMOCK: 54%
[4]; Dodecanal, 15 μM
  percentage of GFP-silencing relative to siMOCK: 34%
[4]; Myristoleyl, 10 μM
  percentage of GFP-silencing relative to siMOCK: 0%
[4]; Myristoleyl, 15 μM
  percentage of GFP-silencing relative to siMOCK: 14%
[4]; Oleyl, 10 μM
  percentage of GFP-silencing relative to siMOCK: 29%
[4]; Oleyl, 15 μM
  percentage of GFP-silencing relative to siMOCK: 31%
[4]; Palmitoleyl, 5 μM
  percentage of GFP-silencing relative to siMOCK: 51%
[4]; Palmitoleyl, 10 μM
  percentage of GFP-silencing relative to siMOCK: −6%
[4]; Palmitoleyl, 15 μM
  percentage of GFP-silencing relative to siMOCK: 7%
[4]; Petroselinyl, 5 μM
  percentage of GFP-silencing relative to siMOCK: 42%
[4]; Petroselinyl, 10 μM
  percentage of GFP-silencing relative to siMOCK: 24%
[4]; Petroselinyl, 15 μM
  percentage of GFP-silencing relative to siMOCK: 26%

Reference: patent US20250304623A1, “PEPTIDES FOR INTRACELLULAR DELIVERY” (UNIVERSIDADE DE SANTIAGO DE COMPOSTELA, priority 2022, published 2025)
